# The RepoRT retention time repository
# Assay: A: acetonitrile + 0.1% formic acid + 10 mM ammonium formate; B: 5% water + 95% acetonitrile + 0.1% formic acid + 10 mM ammonium formate; gradient (min/%B) 0/10 2/10 22/100 27/100 27.1/10
# Conditions: stereoisomer not certain
row,SMILES,LC retention time
1,NC(=O)NCCC(=O)O [3-Ureidopropionic acid],4.57 min
2,"Nc1ccc(S(=O)(=O)c2ccc(N)cc2)cc1 [4,4'-Diaminodiphenyl sulfone]",0.441 min
3,"CC(=O)CC(=O)CCC(=O)O [4,6-Dioxoheptanoic acid]",0.575 min
4,CC(=O)NCCCC(=O)O [4-(Acetylamino)butanoic acid],1.23 min
5,CC(=O)Nc1ccc(O)cc1 [4-Acetamidophenol],0.477 min
6,Nc1ccc(O)cc1 [4-Aminophenol],0.517 min
7,Nc1ccc(C(=O)O)c(O)c1 [4-Aminosalicylic Acid],0.675 min
8,NC(N)=NCCCC(=O)O [4-Guanidinobutyric acid],5.73 min
9,COc1cc(CC(=O)O)ccc1O [4-Hydroxy-3-methoxyphenylacetic Acid],0.535 min
10,O=Cc1ccc(O)cc1 [4-Hydroxybenzaldehyde],3.98 min
11,Cc1ncc(CO)c(C(=O)O)c1O [4-Pyridoxic acid],0.875 min
12,"CC1CNC(=O)NC1=O (stereo not drawn) [5,6-Dihydro Thymine]",0.621 min
13,"Cc1cc2nc[nH]c2cc1C [5,6-Dimethylbenzimidazole]",0.733 min
14,NC(=O)c1ncn(C2OC(CO)C(O)C2O)c1N [5-Aminoimidazole-4-carboxamide-1-beta-D-ribofuranoside],3.02 min
15,NCC(=O)CCC(=O)O [5-Aminolevulinic acid],5.89 min
16,Nc1ccc(O)c(C(=O)O)c1 [5-Aminosalicylic acid],1.82 min
17,NCCCCC(=O)O [5-Aminovaleric acid],5.83 min
18,O=C(O)Cc1c[nH]c2ccc(O)cc12 [5-Hydroxyindole-3-acetic acid],0.651 min
19,COc1ccc2[nH]cc(CCN)c2c1 [5-Methoxytryptamine],2.21 min

row,SMILES,LC retention time
1,Cc1cnc(=O)[nH]c1N [5-Methylcytosine],3.15 min
2,Cc1cn(C2OC(CO)C(O)C2O)c(=O)[nH]c1=O (stereo not drawn) [5-Methyluridine],1.78 min
3,O=C(O)c1ccc(=O)[nH]c1 [6-Hydroxynicotinic acid],5.17 min
4,Cn1c[n+](C2OC(CO)C(O)C2O)c2nc(N)nc([O-])c21 (stereo not drawn) [7-Methylguanosine],5.34 min
5,Cn1cnc2[nH]c(=O)[nH]c(=O)c21 [7-Methylxanthine],1.37 min
6,CC(=O)C1=CCC2C3CCC4=CC(=O)CCC4(C)C3CCC12C (stereo not drawn) [16-Dehydroprogesterone],0.423 min
7,CC(=O)C1(O)CCC2C3CCC4=CC(=O)CCC4(C)C3CCC21C (stereo not drawn) [17-alpha-Hydroxyprogesterone],0.437 min
8,CS(=N)(=O)CC[C@H](N)C(=O)O (stereo partly drawn) [(2S)-2-Amino-4-(S-methylsulfonimidoyl)butanoic acid],6.69 min
9,NC[C@@H](O)CC(=O)O [(S)-(+)-4-Amino-3-hydroxybutyric acid],6.5 min
10,CN1C(=O)CCC1c1cccnc1 [(S)-Cotinine],0.622 min
11,CC1OC(OC2C(CO)OC(OC3C(CO)OC(O)C(O)C3O)C(O)C2O)C(O)C(O)C1NC1C=C(CO)C(O)C(O)C1O (stereo not drawn) [Acarbose],8.07 min
12,CCCC(=O)Nc1ccc(OCC(O)CNC(C)C)c(C(C)=O)c1 (stereo not drawn) [Acebutolol],2.28 min
13,CC(=O)Nc1nnc(S(N)(=O)=O)s1 [Acetazolamide],0.529 min
14,Nc1ncnc2nc[nH]c12 [Adenine],2 min
15,Nc1ncnc2c1ncn2C1OC(COP(=O)(O)OP(=O)(O)O)C(O)C1O (stereo not drawn) [Adenosine 5'-diphosphate],9.46 min
16,Nc1ncnc2c1ncn2C1OC2COP(=O)(O)OC2C1O (stereo not drawn) [Adenosine cyclophosphate],5.66 min
17,Nc1ncnc2c1ncn2C1OC(COP(=O)(O)O)C(O)C1O (stereo not drawn) [Adenosine-5'-monophosphate],6.76 min
18,Nc1ncnc2c1ncn2C1OC(CO)C(O)C1O (stereo not drawn) [Adenosine],2.08 min
19,NCCCCN=C(N)N [Agmatine],6.99 min

row,SMILES,LC retention time
1,CC(C=CC=C(C)C=CC1=C(C)CCCC1(C)C)=CC=O [All trans-Retinal],0.407 min
2,NC(=O)NC(NC(N)=O)C(=O)O [Allantoic acid],6.54 min
3,NC(=O)NC1NC(=O)NC1=O (stereo not drawn) [Allantoin],3.1 min
4,O=c1[nH]cnc2[nH]ncc12 [Allopurinol],0.996 min
5,CC(=O)OCC(=O)C12OC3(CCCC3)OC1CC1C3CCC4=CC(=O)C=CC4(C)C3(F)C(O)CC12C (stereo not drawn) [Amcinonide],0.433 min
6,NC(N)=NC(=O)c1nc(Cl)c(N)nc1N [Amiloride],2.91 min
7,NC(CCCC(=O)O)C(=O)O (stereo not drawn) [Aminoadipic acid],6.5 min
8,CCCCc1oc2ccccc2c1C(=O)c1cc(I)c(OCCN(CC)CC)c(I)c1 [Amiodarone],0.756 min
9,CN(C)CCC=C1c2ccccc2CCc2ccccc21 [Amitriptyline],0.977 min
10,CCOC(=O)C1=C(COCCN)NC(C)=C(C(=O)OC)C1c1ccccc1Cl (stereo not drawn) [Amlodipine],2.02 min
11,CC1(C)SC2C(NC(=O)C(N)c3ccc(O)cc3)C(=O)N2C1C(=O)O (stereo not drawn) [Amoxicillin],5.79 min
12,CC1(C)SC2C(NC(=O)C(N)c3ccccc3)C(=O)N2C1C(=O)O (stereo not drawn) [Ampicillin],4.86 min
13,N#CC(OC1OC(COC2OC(CO)C(O)C(O)C2O)C(O)C(O)C1O)c1ccccc1 (stereo not drawn) [Amygdalin],4.24 min
14,O=c1cc(-c2ccc(O)cc2)oc2cc(O)cc(O)c12 [Apigenin],0.481 min
15,COC(=O)C1=CCCN(C)C1 [Arecoline],2.06 min
16,NCC(CC(=O)O)c1ccc(Cl)cc1 (stereo not drawn) [Baclofen],4.14 min
17,CC(NC(C)(C)C)C(=O)c1cccc(Cl)c1 (stereo not drawn) [Bupropion],0.963 min
18,C=CC1CN2CCC1CC2C(O)c1ccnc2ccccc12 (stereo not drawn) [Cinchonidine],2.2 min
19,CN(CC(=O)O)C(N)=NP(=O)(O)O [Creatine phosphate],7.86 min

# The remaining lines, values ahead:
row,LC retention time,SMILES
1,1.25 min,O=C1CCc2ccc(OCCCCN3CCN(c4cccc(Cl)c4Cl)CC3)cc2N1 [Aripiprazole]
2,4 min,COC(=O)C(Cc1ccccc1)NC(=O)C(N)CC(=O)O (stereo not drawn) [Aspartame]
3,3.34 min,CC(C)NCC(O)COc1ccc(CC(N)=O)cc1 (stereo not drawn) [Atenolol]
4,1.02 min,CNCCC(Oc1ccccc1C)c1ccccc1 (stereo not drawn) [Atomoxetine]
5,0.604 min,O=C(O)CCCCCCCC(=O)O [Azelaic acid]
6,0.416 min,CCC(=O)OCC(=O)C1(OC(=O)CC)C(C)CC2C3CCC4=CC(=O)C=CC4(C)C3(Cl)C(O)CC21C (stereo not drawn) [Beclometasone dipropionate]
7,0.91 min,OC(CCN1CCCCC1)(c1ccccc1)C1CCCCC1 (stereo not drawn) [Benzhexol]
8,0.413 min,O=C(C=Cc1ccccc1)OCc1ccccc1 [Benzyl cinnamate]
9,0.872 min,COc1ccc2c(c1OC)=CN1CCc3cc4c(cc3C1C=2)OCO4 (stereo not drawn) [Berberine]
10,5.7 min,C[N+](C)(C)CC(=O)[O-] [Betaine]
11,6.2 min,O=C(O)CN(CCO)CCO [Bicine]
12,0.518 min,C=CC1=C(C)C(=Cc2[nH]c(Cc3[nH]c(C=C4NC(=O)C(C)=C4C=C)c(C)c3CCC(=O)O)c(CCC(=O)O)c2C)NC1=O [Bilirubin]
13,0.424 min,COc1ccc(-c2coc3cc(O)cc(O)c3c2=O)cc1 [Biochanin A]
14,1.17 min,O=C(O)CCCCC1SCC2NC(=O)NC21 (stereo not drawn) [Biotin]
15,0.477 min,Cn1c(=O)c2c(ncn2C)n(C)c1=O [Caffeine]
16,0.429 min,CC12CCC(=O)C=C1C=CC1C2CCC2(C)C1CCC21CCC(=O)O1 (stereo not drawn) [Canrenone]
17,0.943 min,CCCCCCCC(=O)NCC(=O)O [Capryloyl glycine]
18,1.1 min,CC(CS)C(=O)N1CCCC1C(=O)O (stereo not drawn) [Captopril]

row,LC retention time,SMILES
1,0.469 min,NC(=O)N1c2ccccc2C=Cc2ccccc21 [Carbamazepine]
2,6.96 min,NC(CSCC(=O)O)C(=O)O (stereo not drawn) [Carbocysteine]
3,1.03 min,COc1ccccc1OCCNCC(O)COc1cccc2[nH]c3ccccc3c12 (stereo not drawn) [Carvedilol]
4,1.33 min,O=C(O)COCCN1CCN(C(c2ccccc2)c2ccc(Cl)cc2)CC1 (stereo not drawn) [Cetirizine]
5,4.76 min,O=C(C=Cc1ccc(O)c(O)c1)OC1CC(O)(C(=O)O)CC(O)C1O (stereo not drawn) [Chlorogenic acid]
6,1 min,CN(C)CCCN1c2ccccc2Sc2ccc(Cl)cc21 [Chlorpromazine]
7,0.434 min,O=c1cc(-c2ccccc2)oc2cc(O)cc(O)c12 [Chrysin]
8,2.59 min,CN=C(NC#N)NCCSCc1nc[nH]c1C [Cimetidine]
9,0.991 min,CN(C)CCCC1(c2ccc(F)cc2)OCc2cc(C#N)ccc21 (stereo not drawn) [Citalopram]
10,8.51 min,C[N+](C)(C)CCOP(=O)(O)OP(=O)([O-])OCC1OC(n2ccc(N)nc2=O)C(O)C1O (stereo not drawn) [Citicoline]
11,0.78 min,CC(=CC(=O)O)C(=O)O [Citraconic acid]
12,0.799 min,CCN(CC)CCOc1ccc(C(=C(Cl)c2ccccc2)c2ccccc2)cc1 [Clomiphene]
13,0.942 min,CN(C)CCCN1c2ccccc2CCc2ccc(Cl)cc21 [Clomipramine]
14,0.459 min,CC12CCC(=O)C=C1CCC1C2CCC2(C)C1CCC2(O)C(=O)CO (stereo not drawn) [Cortexolone]
15,0.472 min,CC12CCC(=O)C=C1CCC1C2C(O)CC2(C)C(C(=O)CO)CCC12 (stereo not drawn) [Corticosterone]
16,0.431 min,O=c1ccc2ccccc2o1 [Coumarin]
17,6.15 min,CN(CC(=O)O)C(=N)N [Creatine]
18,2.58 min,CN1CC(=O)NC1=N [Creatinine]
